Patent US10098887B2, “Antiviral compounds and methods of use thereof” (Trana Discovery, Inc., priority 2010, dated 2018)

Experiment: assays described herein (not specified)

SMILES	active in the assays described herein
O=[N+]([O-])c1ccccc1SNc1ccc2c(c1)OCO2 [Compound 75, 5-{[(2-nitrophenyl)thio]amino}-1,3-benzodioxole]	active
Cn1cccc1C=NN1CCN(Cc2cccc3ccccc23)CC1 [Compound 83, N-[(1-methyl-1H-pyrrol-2-yl)methylene]-4-(1-naphthylmethyl)-1-piperazinamine]	active
Oc1ccc(C(c2c[nH]c3ccccc23)c2c[nH]c3ccccc23)cc1O [Compound 86, 4-(di-1H-indol-3-ylmethyl)-1,2-benzenediol]	active
O=C(c1ccc(Br)cc1)c1ccc(N2CCCCC2)c([N+](=O)[O-])c1 [Compound 92, (4-bromophenyl)[3-nitro-4-(1-piperidinyl)phenyl]methanone]	active
CN(C)c1ccc2sc(S)nc2c1 [Compound 95, 5-(dimethylamino)-1,3-benzothiazole-2-thiol]	active
CCOc1ccc(C(=O)c2ccc(N3CC(C)OC(C)C3)c([N+](=O)[O-])c2)cc1 (stereo not shown) [Compound 102, [4-(2,6-dimethyl-4-morpholinyl)-3-nitrophenyl](4-ethoxyphenyl)methanone]	active
O=C(c1cccs1)N1CCN(c2ccc([N+](=O)[O-])c(N3CCCC3)c2)CC1 [Compound 114, 1-[4-nitro-3-(1-pyrrolidinyl)phenyl]-4-(2-thienylcarbonyl)piperazine]	active
